Laboratory results: paper PMC9737648, “Novel Approaches for the Solid-Phase Synthesis of Dihydroquinazoline-2(1H)-One Derivatives and Biological Evaluation as Potential Anticancer Agents” (Molecules, 2022)

Legend:
[1] = system: human liver cancer cells (HepG-2); assay: MTT cytotoxicity assay, HepG-2; assay type: cell-based; details: 72-h incubation
Procedure: (§1) The above cells were tested for cytotoxicity to identify the most promising antitumor drug among the synthesized quinazolinone derivatives.
(§2) An MTT assay was used to evaluate the in vitro cytotoxicity of the new compounds. The MTT assay depends on the reduction of soluble 3-([…])-2,5-diphenyl-tetrazolium bromide (MTT) into a blue purple formazan product, mainly by mitochondrial reductase activity inside living cells. […] The cells were suspended in growth medium and plated in 96-well culture plates at a density of 4 × 10^4 cells/well and incubated at 37 °C in a 5% CO2 incubator. […] Each experiment was performed at least 3 times.

[2] = system: breast cancer cells (MDA-MB-231); assay: MTT cytotoxicity assay, MDA-MB-231; assay type: cell-based, human; details: Homo sapiens, 72-h incubation
Procedure: as §1, §2

[3] = system: ovarian cancer cells (A2780); assay: MTT cytotoxicity assay, A2780; assay type: cell-based, human; details: 72-h incubation
Procedure: as §1, §2

[4] = system: human hepatic stellate cells (LX-2); assay: MTT cytotoxicity assay, LX-2 normal control; assay type: cell-based; details: Homo sapiens, 72-h incubation
Procedure: as §1, §2

[5] = DPPH• free radical scavenging assay; details: for IC50: concentration required to scavenge 50% of the DPPH, 30 min in the dark
Procedure: The quinazolinone derivatives were evaluated for their free radical scavenging activity at 320, 160, 80, 40, 20, and 10 µM concentration using the DPPH radical method, with ascorbic acid as the positive control (Table 3).
The antiradical activity of the compounds was estimated according to a slight modification of the procedure reported by Morales and Jimenez-Perez. […] Each sample (100 μL) at a different concentration was added to a freshly prepared solution of 1,1-diphenyl-2-picrylhydrazyl (DPPH•) radical (0.2 mM, 100 μL). The mixtures (200 μL) were placed in a 96-well microplate, shaken vigorously, and then left to stand for 30 min in the dark. Then, absorbance was immediately measured at a wavelength of 517 nm. Vc was used as the standard. The antiradical activity for each compound was determined in the Vc equivalent antioxidant capacity. The DPPH• solution in the presence of ethanol and in the absence of compounds was tested and used as a negative control. […] In all experiments, the samples were analyzed in triplicate, and activity for each compound was presented as the mean value ± SEM and used for evaluation of structure–activity relationships. […] Absorbance was taken at 520 nm using a microplate reader (Tecan, Männedorf, Switzerland).

| IC50 [5] [µM] | SMILES | IC50 ([1]; Homo sapiens, HepG2, 72 h) [µM] | IC50 [2] [µM] | IC50 ([3]; Homo sapiens, A2780, 72 h) [µM] | IC50 [4] [µM] | IC50 [1] [µM] | IC50 [3] [µM] | antioxidant activity (in words) ([5]; DPPH assay) |
| --- | --- | --- | --- | --- | --- | --- | --- | --- |
| > 1000 | NCCCN1C(=O)NC(CC(=O)NC(CO)C(N)=O)c2cc(NC(=O)CCc3cccnc3)ccc21 (stereo not drawn) [CA1-h, 3-{4-{2-[(1-amino-3-hydroxy-1-oxopropan-2-yl)amino]-2-oxoethyl}-2-oxo-6-[3-(pyridin-3-yl)propanamido]-3,4-dihydroquinazolin-1(2H)-yl}propan-1-aminium 2,2,2-trifluoroacetate] | 56.93 ± 0.47 | 82.2 ± 11.4 | 86.1 ± 3.73 | 97.5 ± 3.52 |  |  |  |
| > 1000 | NCCCN1C(=O)NC(CC(=O)NC(CO)C(N)=O)c2cc(NC(=O)COc3ccccc3)ccc21.O=C(O)C(F)(F)F (stereo not drawn) [CA1-g, 3-{4-{2-[(1-amino-3-hydroxy-1-oxopropan-2-yl)amino]-2-oxoethyl}-2-oxo-6-(2-phenoxyacetamido)-3,4-dihydroquinazolin-1(2H)-yl}propan-1-aminium 2,2,2-trifluoroacetate] | < 50 | 82.21 ± 0.59 | < 40 | > 100 | 45.4 ± 0.59 | 24.9 ± 7.22 | no antioxidant activity |
| 57.99 ± 0.38 | NCCCN1C(=O)NC(CC(=O)NC(CO)C(N)=O)c2cc(N)ccc21 (stereo not drawn) [CA1-7, 4-{2-[(1-amino-3-hydroxy-1-oxopropan-2-yl)amino]-2-oxoethyl}-1-(3-ammoniopropyl)-2-oxo-1,2,3,4-tetrahydroquinazolin-6-aminium 2,2,2-trifluoroacetate] | 59.3 ± 1.85 | 90.1 ± 10.9 | 79.8 ± 1.01 | > 100 |  |  |  |
